According to ChEMBL document CHEMBL3885881, “DrugMatrix”:

Species: Rattus norvegicus
Test: DrugMatrix - Regimen: Daily Repeat
Type: toxicity, organism-based, Sprague-Dawley
Set-up: regimen Daily Repeat, gender Male, age 6-8 weeks
Settings: in vivo, po, 10 mg/kg, route oral GAVAGE, dose level Low, […]; for ABSOLUTE BASOPHIL / ABSOLUTE EOSINOPHIL / ABSOLUTE LYMPHOCYTE / ABSOLUTE MONOCYTE / ABSOLUTE SEGMENTED NEUTROPHIL / BASOPHIL / EOSINOPHIL / ERYTHROCYTE COUNT / HEMATOCRIT / HEMOGLOBIN / LEUKOCYTE COUNT / LYMPHOCYTE / MEAN CORPUSCULAR HEMOGLOBIN / MEAN CORPUSCULAR HEMOGLOBIN CONCENTRATION / MEAN CORPUSCULAR VOLUME / MONOCYTE / NEUTROPHIL / NUCLEATED RED BLOOD CELLS / PLATELET COUNT: tissue Blood; for ALANINE AMINOTRANSFERASE / ALBUMIN / ALKALINE PHOSPHATASE / ASPARTATE AMINOTRANSFERASE / BLOOD UREA NITROGEN / CARBON DIOXIDE / CHLORIDE / CHOLESTEROL / CREATINE PHOSPHOKINASE / CREATININE / GLUCOSE / LACTATE DEHYDROGENASE / LIPASE / PHOSPHORUS / POTASSIUM / SODIUM / TOTAL BILIRUBIN / TOTAL PROTEIN / URIC ACID: tissue Plasma

`NC(=O)N1C(=O)/C(=C(\O)c2cccs2)c2cc(Cl)ccc21` [TENIDAP] was tested, and the “ABSOLUTE BASOPHIL” value (72 h, time 3 day) was 0 CELLS/uL, the “ABSOLUTE EOSINOPHIL” value (72 h, time 3 day) was 204 CELLS/uL and the “ABSOLUTE LYMPHOCYTE” value (72 h, time 3 day) was 13523 CELLS/uL. For the same molecule, the “ABSOLUTE MONOCYTE” value (72 h, time 3 day) was 155.33 CELLS/uL, the “ABSOLUTE SEGMENTED NEUTROPHIL” value (72 h, time 3 day) was 1651 CELLS/uL and the BASOPHIL (72 h, time 3 day) was 0%. The EOSINOPHIL (72 h, time 3 day) was 1.33%, the “ERYTHROCYTE COUNT” value (72 h, time 3 day) was 5.32 x10E6/uL and the HEMATOCRIT (72 h, time 3 day) was 33.53%. For the same molecule, the HEMOGLOBIN (72 h, time 3 day) was 13.33 G/DL, the “LEUKOCYTE COUNT” value (72 h, time 3 day) was 15.53 x10E3/uL and the LYMPHOCYTE (72 h, time 3 day) was 86.67%. For the same molecule, the “MEAN CORPUSCULAR HEMOGLOBIN” value (72 h, time 3 day) was 25.03 pg, the “MEAN CORPUSCULAR HEMOGLOBIN CONCENTRATION” value (72 h, time 3 day) was 39.73 G/DL and the “MEAN CORPUSCULAR VOLUME” value (72 h, time 3 day) was 62.97 fL. The MONOCYTE (72 h, time 3 day) was 1%, the NEUTROPHIL (72 h, time 3 day) was 11% and the “NUCLEATED RED BLOOD CELLS” value (72 h, time 3 day) was 0 /100WBC. The “PLATELET COUNT” value (72 h, time 3 day) was 1066.67 x10E3/uL, the “ALANINE AMINOTRANSFERASE” value (72 h, time 3 day) was 83.33 u/L and the ALBUMIN (72 h, time 3 day) was 3.87 G/DL. The “ALKALINE PHOSPHATASE” value (72 h, time 3 day) was 429.33 u/L, the “ASPARTATE AMINOTRANSFERASE” value (72 h, time 3 day) was 109.67 u/L and the “BLOOD UREA NITROGEN” value (72 h, time 3 day) was 11 mg/dL. The “CARBON DIOXIDE” value (72 h, time 3 day) was 23.67 mmol/L, the CHLORIDE (72 h, time 3 day) was 102.67 MEQ/L and the CHOLESTEROL (72 h, time 3 day) was 63.67 mg/dL. For the same molecule, the “CREATINE PHOSPHOKINASE” value (72 h, time 3 day) was 779.67 u/L, the CREATININE (72 h, time 3 day) was 0.2 mg/dL and the GLUCOSE (72 h, time 3 day) was 169 mg/dL. For the same molecule, the “LACTATE DEHYDROGENASE” value (72 h, time 3 day) was 223.67 u/L, the LIPASE (72 h, time 3 day) was 12 u/L and the PHOSPHORUS (72 h, time 3 day) was 11.47 mg/dL. For the same molecule, the POTASSIUM (72 h, time 3 day) was 5.98 MEQ/L, the SODIUM (72 h, time 3 day) was 143.97 MEQ/L and the “TOTAL BILIRUBIN” value (72 h, time 3 day) was 0.17 mg/dL. The “TOTAL PROTEIN” value (72 h, time 3 day) was 5.27 G/DL, the “URIC ACID” value (72 h, time 3 day) was 1.43 mg/dL and the “ABSOLUTE BASOPHIL” value (120 h, time 5 day) was 0 CELLS/uL. For the same molecule, the “ABSOLUTE EOSINOPHIL” value (120 h, time 5 day) was 83.67 CELLS/uL, the “ABSOLUTE LYMPHOCYTE” value (120 h, time 5 day) was 10624.67 CELLS/uL and the “ABSOLUTE MONOCYTE” value (120 h, time 5 day) was 83.67 CELLS/uL. The “ABSOLUTE SEGMENTED NEUTROPHIL” value (120 h, time 5 day) was 1674.67 CELLS/uL, the BASOPHIL (120 h, time 5 day) was 0% and the EOSINOPHIL (120 h, time 5 day) was 0.67%. The “ERYTHROCYTE COUNT” value (120 h, time 5 day) was 5.4 x10E6/uL, the HEMATOCRIT (120 h, time 5 day) was 33.6% and the HEMOGLOBIN (120 h, time 5 day) was 13.33 G/DL. The “LEUKOCYTE COUNT” value (120 h, time 5 day) was 12.47 x10E3/uL, the LYMPHOCYTE (120 h, time 5 day) was 85.33% and the “MEAN CORPUSCULAR HEMOGLOBIN” value (120 h, time 5 day) was 24.7 pg. The “MEAN CORPUSCULAR HEMOGLOBIN CONCENTRATION” value (120 h, time 5 day) was 39.67 G/DL, the “MEAN CORPUSCULAR VOLUME” value (120 h, time 5 day) was 62.27 fL and the MONOCYTE (120 h, time 5 day) was 0.67%. For the same molecule, the NEUTROPHIL (120 h, time 5 day) was 13.33%, the “NUCLEATED RED BLOOD CELLS” value (120 h, time 5 day) was 0 /100WBC and the “PLATELET COUNT” value (120 h, time 5 day) was 1241 x10E3/uL. For the same molecule, the “ALANINE AMINOTRANSFERASE” value (120 h, time 5 day) was 56.33 u/L, the ALBUMIN (120 h, time 5 day) was 4.13 G/DL and the “ALKALINE PHOSPHATASE” value (120 h, time 5 day) was 448.67 u/L. The “ASPARTATE AMINOTRANSFERASE” value (120 h, time 5 day) was 103.33 u/L, the “BLOOD UREA NITROGEN” value (120 h, time 5 day) was 13 mg/dL and the “CARBON DIOXIDE” value (120 h, time 5 day) was 33.67 mmol/L. For the same molecule, the CHLORIDE (120 h, time 5 day) was 100.33 MEQ/L, the CHOLESTEROL (120 h, time 5 day) was 58.33 mg/dL and the “CREATINE PHOSPHOKINASE” value (120 h, time 5 day) was 442.67 u/L. The CREATININE (120 h, time 5 day) was 0.21 mg/dL, the GLUCOSE (120 h, time 5 day) was 155 mg/dL and the “LACTATE DEHYDROGENASE” value (120 h, time 5 day) was 736.33 u/L. It also gave an LIPASE (120 h, time 5 day) of 11 u/L, a PHOSPHORUS (120 h, time 5 day) of 11.1 mg/dL and a POTASSIUM (120 h, time 5 day) of 6.31 MEQ/L. For the same molecule, the SODIUM (120 h, time 5 day) was 144.37 MEQ/L, the “TOTAL BILIRUBIN” value (120 h, time 5 day) was 0.17 mg/dL and the “TOTAL PROTEIN” value (120 h, time 5 day) was 5.93 G/DL. For the same molecule, the “URIC ACID” value (120 h, time 5 day) was 1.33 mg/dL.
